Results on one molecule are retold here after patent US7041812B2, “Labeled nucleoside polyphosphates” (Amersham Biosciences Corp, priority 2001, dated 2006).

The target in assay [1] is T1, MMLV reverse transcriptase (Moloney murine leukemia virus, UniProt P03355).
T1 construct: MMLV reverse transcriptase
Nature of the assay: Rates of incorporation of dTPn-DDAO (n=3 or 4) by reverse transcriptase. It is filed as biochemical. The following applies: 1 μM nucleotide, 100 nM primer annealed to template, shrimp alkaline phosphatase, 23° C., FIG. 2. The protocol:
(§1) Reactions were assembled at room temperature (23° C.) using the deoxynucleotides of Example (1–5). Reactions contained primer template combinations having a single oligonucleotide primer (represented by SEQ ID NO: 1) annealed to an oligonucleotide template corresponding to SEQ ID NO: 2.
(§2) Reaction conditions: A 70 μl reaction containing 50 mM Tris, pH 8.0, 5% glycerol, 5 mM MgCl2, 0.01% tween-20, 0.25 units shrimp alkaline phosphatase, 100 nM primer annealed to template, and 1 μM ddTPn-DDAO was assembled in a quartz fluorescence ultra-microcuvet in a LS-55 Luminescence Spectrometer (Perkin Elmer), operated in time drive mode. Excitation and emission wavelengths are 620 nm and 655 nm respectively. Slit widths were […] for excitation slits, 15 nm for emission slits. The reaction was initiated by the addition of 0.35 μl (11 units) of a cloned DNA polymerase I (genetically engineered to eliminate 3′-5′ exonuclease activity, 5′-3′ exonuclease activity and discrimination against dideoxynucleotides) or MMLV reverse transcriptase, and 0.25 mM MnCl2.

The test system of assay [2] is cloned DNA polymerase I (genetically engineered to eliminate 3′-5′ exonuclease activity, 5′-3′ exonuclease activity and discrimination against …). Kind of assay: Rates of incorporation of dTPn-DDAO (n=3 or 4) by DNA polymerase. The class given is biochemical. The following applies: 1 μM nucleotide, 100 nM primer annealed to template, shrimp alkaline phosphatase, 23° C., FIG. 2. Here is the method:
as §1, §2

Each structure is given as a SMILES string.

Turning to `Cc1cn([C@H]2CC(O)[C@@H](COP(=O)(O)OP(=O)(O)OP(=O)(O)OP(=O)(O)Oc3ccc4c(c3)C(C)(C)C3=C(Cl)C(=O)C(Cl)=CC3=N4)O2)c(=O)[nH]c1=O` (some centres unmarked) [dT4P-DDAO, δ-9H(1,3-dichloro-9,9-dimethylacridin-2-one-7-yl)-deoxythymidine-5′-tetraphosphate], the rate of incorporation result in assay [1] and in assay [2] was “significantly higher than that of dT3P-DDAO” throughout.
